The test system of test [1] is T1, P. minus farnesol dehydrogenase; NAD(P)+-dependent farnesol dehydrogenase.
T1 construct: native, purified from leaves; gene not cloned
Briefly: NADH formation at […] nm, Lineweaver-Burk. Format: biochemical, Persicaria minor. The following applies: 100 mM glycine-NaOH pH 9.5, 35 C, read-out: K m value.

Test [2] shares this test system. Briefly: NADPH formation at […] nm, Lineweaver-Burk. Format: biochemical, Persicaria minor. As to conditions: 1.0 mM trans,trans-farnesol (standard assay), 100 mM glycine-NaOH pH 9.5, 35 C; substrate range stated 0.5-1.5 mM, extrapolated; read-out: K m value.
Where [3] appears, read: 1.0 mM NAD+ (standard assay), oxidation.

With `C=C(C)C1CC=C(C)C(O)C1` (stereo not shown) [Carveol], the Km in test [1] (setting [3]) was found to be 710 µM. Regarding `NC(=O)c1ccc[n+]([C@@H]2O[C@H](COP(=O)(O)OP(=O)(O)OC[C@H]3O[C@@H](n4cnc5c(N)ncnc54)[C@H](O)[C@@H]3O)[C@@H](O)[C@H]2O)c1` [NAD^+], in test [1] (1.0 mM trans,trans-farnesol (standard assay)), the Km worked out at 740 µM.

In the case of `CC(C)=CCC/C(C)=C/CC/C(C)=C\CO` [Cis, trans-farnesol], in test [1] (setting [3]), the Km came to 330 µM. For the compound `CC(C)=CCC/C(C)=C/CO` [Geraniol, (trans)-3,7-dimethyl-2,6-octadien-1-ol], the Km in test [1] (1.0 mM NAD+ (standard assay), oxidation, substrate range 0.5-1.5 mM, extrapolated) is 12500 µM.

On to `OC/C=C/c1ccccc1` [Cinnamyl alcohol], for which, in test [1] (setting [3]), the Km stood at 1040 µM. As for `NC(=O)c1ccc[n+]([C@@H]2O[C@H](COP(=O)(O)OP(=O)(O)OC[C@H]3O[C@@H](n4cnc5c(N)ncnc54)[C@H](OP(=O)(O)O)[C@@H]3O)[C@@H](O)[C@H]2O)c1` [NADP^+], in test [2], the Km was 40000 µM.

With `C=C(C)[C@@H]1CC=C(CO)CC1` [(S)-Perillyl alcohol], the Km in test [1] (setting [3]) came to 770 µM. Consider `C=CC(C)(O)CCC=C(C)CCC=C(C)C` (stereo not shown) [nerolidol], for which, in test [1] (setting [3]), the Km amounted to 1000 µM. Regarding `CC(C)=CCC/C(C)=C/CC/C(C)=C/CO` [Trans, trans-farnesol, trans,trans-3,7,11-trimethyl-2,6,10-dodecatrien-1-ol], the Km in test [1] (setting [3]) was determined as 170 µM. Same read-out and setting: under `CC(C)=CCC/C(C)=C\CC/C(C)=C\CO` [Cis, cis-farnesol] stands 420 µM.
